# Assays:
# [1] = test system: APP/PS1 mice; experiment: Passive avoidance test, APP/PS1 mice; format: in vivo, mouse
# Description: (§1) For an animal model of AD, both sexes of 10- to 18-month-old APP/PS1 mice were maintained and used as previously described.[76],[77] To test the effects of novel H2O2-decomposing enhancers in the AD model, the mice were treated by i.p. injection with KDS12008 (3 mg/kg/day), KDS12017 (3 mg/kg/day), or KDS12025 (3 or 10 mg/kg/day) once per day for 1 or 2 weeks, depending on the experimental protocol. All drugs were dissolved in 200 μl of saline, and the amount of each drug was calculated on the basis of the weight (kg) of the mouse. Moreover, KDS12025 (3 mg/kg/day) was orally administered to the AD model for 2 weeks ad libitum.
# Sufficiently handled mice were ready before the PAT. The mice were placed in a two-compartment (light and dark) shuttle chamber with a shock generator (Ugo Basile, Italy). On the first day, the mice were placed in the light compartment for acquisition. The mice were allowed to explore the light compartment for 60 s, after which the door separating the light and dark compartments was raised to allow the mice to enter the dark compartment. When the mice entered the dark compartment, the separating door was closed immediately, and an electrical foot shock (0.5 mA, 2 s duration) was delivered through the floor grid. The mice were then moved back to the home cage, and the retention trial was conducted 24 h after the acquisition. On the second day, the mice were again placed in the light compartment for the retention trial. After 60 s, the door was raised to allow the mice to enter the dark compartment. The latency to step through the dark compartment before and after the electric shock was recorded for up to 540 s.
# [2] = test system: APP/PS1 mice; experiment: Immunohistochemistry of hippocampus, APP/PS1 mice; format: in vivo, mouse; conditions: for mean intensity of Iba1 in the hippocampus: Fig. S10e
# Description: as §1
# The mice were deeply anesthetized with vaporized 1% isoflurane and placed into stereotaxic frames (RWD Life Science, China). Following an incision on the midline of the scalp, a hole was drilled into the skull above the hippocampus. AAV-GFAP104-GFP or AAV-GFAP104-DTR-GFP was bilaterally microinjected into the hippocampal CA1 region (AP, −2.0 mm; ML, ±1.5 mm; DV, −1.65 mm from the bregma). Diphtheria toxin (2 mg/ml) was administered for 16 days as previously described.[77] For shRNA knockdown, AAV-pSicoR-Hbβ-shRNA-mCherry or AAV-pSicoR-Sc-shRNA-mCherry was microinjected into the same coordinate system. A total of 0.8 µl of the virus was injected via a syringe pump (KD Scientific, USA). The injection procedures were implemented before 5 weeks of the experiments. For cell type-specific knockdown, AAV-pSico-Hbβ-shRNA-GFP or AAV-pSico-Sc-shRNA-GFP was combined with either AAV-CaMKII-Cre-mCherry for neuronal targeting or AAV-GFAP-Cre-mCherry for astrocyte targeting. The viruses were bilaterally injected into the hippocampus and substantia nigra via the same stereotaxic coordinates and injection procedures. All viruses used in this study were produced at the Institute for Basic Science virus facility (IBS virus facility, Korea). To investigate the effects of 0.1 mg/kg/day KDS12025, GiD mice were injected with diphtheria toxin (2 mg/ml) daily for 16 days. Concurrently, KDS12025 was administered ad libitum (0.1 mg/kg/day) during the same period.
# The mice were deeply anesthetized with 2% isoflurane and positioned on the operating table. After the abdomen was opened and the heart was exposed, the […] were perfused with saline, followed by 4% paraformaldehyde (PFA) in 0.1 M PBS. The mice were decapitated, and the brains were excised from the skull. Excised brains were postfixed in 4% PFA overnight at 4 °C and dehydrated in 30% sucrose for 48 h. Coronal hippocampal sections were cut at 30 µm thickness with a cryostat and stored in storage solution. For the ALS experiments, lumbar spinal cords (L2–L5) were also carefully dissected and immediately immersed in 4% PFA for postfixation. The sections were fully washed in 0.1 M PBS and incubated for 1 h in blocking solution (0.3% Triton X-100, 2% donkey and goat serum in 0.1 M PBS). Next, a mixture of primary antibodies in the blocking solution was used for immunostaining on a shaker overnight at 4 °C. The sections were washed in PBS three times. After washing, the sections were incubated with the corresponding fluorescent secondary antibodies for 1 h at RT. DAPI staining was performed by adding a DAPI solution (1:2000) during the second washing step. After the washing step was complete, the sections were mounted on cover slides with mounting medium. A series of fluorescence images were obtained with an LSM900 (Zeiss, Germany) confocal microscope or Lattice SIM Elyra 7 (Zeiss, Germany). The 15–22 μm Z stack images in 1–2 μm steps were processed for image analysis, which was performed via the ImageJ (NIH, US) and ZEN digital imaging for light microscopy blue system (Zeiss, Germany) programs.
# [3] = 3 mg/kg/day i.p., 16 times, Fig. S10b
# [4] = APP+KDS12025 3 mg/kg/day ad libitum, Fig. 5m
smiles,measurement,setting,value
"CN(C)c1ccc(NCCc2ccc(C(F)(F)F)cc2)cc1.Cl [KDS12008, N^1,N^1-dimethyl-N^4-(4-(trifluoromethyl)phenethyl)benzene-1,4-diamine hydrochloride salt]","PAT transfer latency, acquisition",[1]; [3],44.42±13.85
same,"PAT transfer latency, retrieval",[1]; [3],233.6±102.3
same,mean intensity of Iba1 in the hippocampus,[2]; 3 mg/kg/day i.p.,1562±64.27
same,mean intensity of GFAP in the hippocampus,"[2]; 3 mg/kg/day i.p., Fig. S10d",2063±93.76
"CNc1ccc(NCCc2ccccc2OC)cc1.Cl [KDS12025, N^1-(2-methoxyphenethyl)-N^4-methylbenzene-1,4-diamine hydrochloride salt]","PAT transfer latency, acquisition",[1]; [3],29.03±6.431
same,"PAT transfer latency, retrieval",[1]; [3],291.0±68.80
same,"PAT transfer latency, acquisition","[1]; 3mpk i.p., 7 times, Fig. S10g",36.47±13.39
same,"PAT transfer latency, retrieval","[1]; 3mpk i.p., 7 times, Fig. S10g",341.7±71.16
same,"PAT transfer latency, acquisition","[1]; 10mpk i.p., 7 times, Fig. S10g",66.00±15.30
same,"PAT transfer latency, retrieval","[1]; 10mpk i.p., 7 times, Fig. S10g",508.8±49.93
same,"PAT transfer latency, acquisition",[1]; [4],21.17±3.843
same,"PAT transfer latency, retrieval",[1]; [4],254.3±56.96
same,mean Hbβ intensity in GFAP-positive areas,"[2]; 3 mg/kg/day ad libitum, Fig. 5e","WT (70.03±1.523, n=55), APP (62.3±1.219, n=65), APP+KDS12025 (ad libitum) (68.67±2.358, n=54) One-way ANOVA with Tukey's multiple comparisons test, F(2,171) = 6.123, p = 0.003 WT vs. APP, p = 0.004; WT vs. APP+KDS12025 (ad libitum), p = 0.85; APP vs. APP+KDS12025 (ad libitum), p = 0.02"
same,mean GFAP intensity in GFAP-positive areas,"[2]; 3 mg/kg/day ad libitum, Fig. 5f","WT (61.01±2.28, n=6), APP (114.3±9.536, n=6), APP+KDS12025 (ad libitum) (64.48±6.98, n=6) One-way ANOVA with Tukey's multiple comparisons test, F(2,14) = 17.24, p < 0.001 WT vs. APP, p < 0.001; WT vs. APP+KDS12025 (ad libitum), p = 0.89; APP vs. APP+KDS12025 (ad libitum), p < 0.001"
same,"Sholl analysis, sum of intersections","[2]; 3 mg/kg/day ad libitum, Fig. 5g","WT (31.45±3.606, n=11), APP (63.19±5.017, n=16), APP+KDS12025 (ad libitum) (33.69±3.3, n=13) One-way ANOVA with Tukey's multiple comparisons test, F(2,37) = 18.10, p < 0.001 WT vs. APP, p < 0.001; WT vs. APP+KDS12025 (ad libitum), p = 0.94; APP vs. APP+KDS12025 (ad libitum), p < 0.001"
same,"Sholl analysis, ending radius","[2]; 3 mg/kg/day ad libitum, Fig. 5i","WT (110.0±6.606, n=11), APP (135.6±5.625, n=16), APP+KDS12025 (ad libitum) (103.1±7.794, n=13) One-way ANOVA with Tukey's multiple comparisons test, F(2,37) = 7.249, p = 0.002 WT vs. APP, p = 0.03; WT vs. APP+KDS12025 (ad libitum), p = 0.77; APP vs. APP+KDS12025 (ad libitum), p = 0.003"
same,"Sholl analysis, number of intersections","[2]; 3 mg/kg/day ad libitum, Fig. 5j","Two-way ANOVA with Tukey's multiple comparison test, F (2,378) = 37.72, p < 0.001 WT (2.028, n=12), APP (4.318, n=17), APP+KDS12025 (ad libitum) (2.392, n=12) WT vs. APP, p < 0.001 (***); WT vs. APP+KDS12025 (ad libitum), p = 0.52; APP vs. APP+KDS12025 (ad libitum), p < 0.001 (^###)"
same,"Sholl analysis, ramification index","[2]; 3 mg/kg/day ad libitum, Fig. 5h","WT (1.617±0.2177, n=11), APP (7.134±1.523, n=16), APP+KDS12025 (ad libitum) (2.808±0.6584, n=13) One-way ANOVA with Tukey's multiple comparisons test, F(2,37) = 6.945, p = 0.003 WT vs. APP, p = 0.004; WT vs. APP+KDS12025 (ad libitum), p = 0.76; APP vs. APP+KDS12025 (ad libitum), p = 0.02"
same,mean intensity of GABA in GFAP-positive area,"[2]; 3 mg/kg/day ad libitum, Fig. S11c","WT (41.73±1.1951, n=19), APP (50.90±1.074, n=41), APP+KDS12025 (ad libitum) (44.45±1.015, n=28) One-way ANOVA with Tukey's multiple comparisons test, F(2,85) = 14.24, p < 0.001 WT vs. APP, p < 0.001; WT vs. APP+KDS12025 (ad libitum), p = 0.38; APP vs. APP+KDS12025 (ad libitum), p < 0.001"
same,mean intensity of 8-OHdG in GFAP-positive area,"[2]; 3 mg/kg/day ad libitum, Fig. S11d","WT (1903±72.86, n=32), APP (2435±66.11, n=58), APP+KDS12025 (ad libitum) (1951±48.61, n=57) One-way ANOVA with Tukey's multiple comparisons test, F(2,144) = 23.42, p < 0.001 WT vs. APP, p < 0.001; WT vs. APP+KDS12025 (ad libitum), p = 0.88; APP vs. APP+KDS12025 (ad libitum), p < 0.001"
same,mean intensity of Iba1 in the hippocampus,[2]; 3 mg/kg/day i.p.,1343±38.44
same,mean intensity of GFAP in the hippocampus,"[2]; 3 mg/kg/day i.p., Fig. S10d",1190±87.29
same,mean intensity of GFAP in the hippocampus,"[2]; 3mpk i.p., Fig. S10i",59.33±6.459
same,mean intensity of GFAP in the hippocampus,"[2]; 10mpk i.p., Fig. S10i",56.71±4.775
same,GFAP-positive area,"[2]; APP+ScRNA+KDS12025, Fig. 6i",142.4±8.715
same,GFAP intensity,"[2]; APP+ScRNA+KDS12025, Fig. 6j",124.3±1.773
same,Hbβ intensity in GFAP-positive areas,"[2]; APP+ScRNA+KDS12025, Fig. 6h",10.10±0.4531
same,"Sholl analysis, sum of intersections","[2]; APP+ScRNA+KDS12025, Fig. S16e",142.4±8.715
same,"Sholl analysis, ending radius","[2]; APP+ScRNA+KDS12025, Fig. S16f",54.48±2.319
same,"Sholl analysis, number of intersections","[2]; APP+ScRNA+KDS12025, Fig. S16g",4.984±0.7027
same,GFAP-positive area,"[2]; APP+shHbβ+KDS12025, Fig. 6i",234.3±16.93
same,GFAP intensity,"[2]; APP+shHbβ+KDS12025, Fig. 6j",146.8±2.262
same,Hbβ intensity in GFAP-positive areas,"[2]; APP+shHbβ+KDS12025, Fig. 6h",6.275±0.4473
same,"Sholl analysis, sum of intersections","[2]; APP+shHbβ+KDS12025, Fig. S16e",234.3±16.93
same,"Sholl analysis, ending radius","[2]; APP+shHbβ+KDS12025, Fig. S16f",100.4±6.075
same,"Sholl analysis, number of intersections","[2]; APP+shHbβ+KDS12025, Fig. S16g",5.314±0.9626
same,Hbβ intensity in GFAP-positive areas,"[2]; APP+shHbβ::CaMKII+KDS12025, Fig. 6m",110.5±1.59
same,GFAP-positive area,"[2]; APP+shHbβ::CaMKII+KDS12025, Fig. 6n",55.98±5.45
same,GFAP intensity,"[2]; APP+shHbβ::CaMKII+KDS12025, Fig. 6o",131.4±3.56
same,"Sholl analysis, sum of intersections","[2]; APP+shHbβ::CaMKII+KDS12025, Fig. S17b",42.1±3.9
same,"Sholl analysis, ending radius","[2]; APP+shHbβ::CaMKII+KDS12025, Fig. S17c",80.3±6.8
same,Hbβ intensity in GFAP-positive areas,"[2]; APP+shHbβ::GFAP+KDS12025, Fig. 6m",87.46±1.26
same,GFAP-positive area,"[2]; APP+shHbβ::GFAP+KDS12025, Fig. 6n",134.3±10.91
same,GFAP intensity,"[2]; APP+shHbβ::GFAP+KDS12025, Fig. 6o",152.1±5.50
same,"Sholl analysis, sum of intersections","[2]; APP+shHbβ::GFAP+KDS12025, Fig. S17b",57.9±3.7
same,"Sholl analysis, ending radius","[2]; APP+shHbβ::GFAP+KDS12025, Fig. S17c",109.8±5.4
